Here are results for five molecules from patent US11464784B2, “Inhibition of aminocylase 3 (AA3) in the treatment of cancer” (THE REGENTS OF THE UNIVERSITY OF CALIFORNIA, priority 2017, dated 2022).

In series [1] the test system is colon cancer cell lines COLO 205, HCT 116, LS 513. Put plainly: MTT cell viability, colon cancer cell lines. Type of series: cell-based, human. An excerpt:
(§1) Human colon cancer cell lines COLO 205, HCT 116, LS 513 (all ATCC), primary colon epithelial cells (Cell Biologics), pancreatic cancer cell lines PANC-1, MIA PaCa-2, BxPC-3, and normal pancreatic duct epithelial cells (UCLA collection) were used in experiments. COLO 205, LS 513, BxPC-3 cells were cultivated in RPMI 1640 medium with 10% FBS, HCT 116 cells were cultivated in McCoy's 5A medium with 10% FBS, PANC-1 and MIA PaCa-2 cell lines were cultivated in DMEM medium with 10% FBS, and normal colon and pancreatic cells were maintained in Human Epithelial Cell Medium (Cell Biologics).
(§2) HCC cell lines HepG2, HuH7, primary hepatocytes, colon cell lines COLO 205, HCT 116, LS 513, primary colon epithelial cells, pancreatic cancer cell lines PANC-1, MIA PaCa-2, BxPC-3, and normal pancreatic duct epithelial cells were seeded in 96-well plates at a density 10,000 cells per well in complete medium. Next day medium was changed to medium containing 1% FBS and an AA3 inhibitor (3-100 μM). 24 h later cell viability was determined using the MTT (3-(4,5-dimethylthiazol-2-yl)-2,5-diphenyltetrazolium bromide) cell viability assay. Cells were incubated during 4 h at 37° C. with 150 μl fresh media containing 0.5 mg/ml MTT. Then 50 μl of 20% SDS in 25 mM HCl was added to each well, incubated for 4 h and the optical density at 570 nm was measured on a VMax Kinetic Microplate Reader (Molecular Devices, Sunnyvale, Calif.).

In series [2] the test system is pancreatic cancer cell lines PANC-1, MIA PaCa-2, BxPC-3. Briefly: MTT cell viability, pancreatic cancer cell lines. The format is cell-based, human.
Description: as §1, §2

Series [3] deals with normal pancreatic duct epithelial cells. Briefly: MTT cell viability, normal pancreatic cells. The format is cell-based, human.
Description: as §1, §2

Series [4] relates to HepG2 cells. Briefly: Levels of FC and NAFC in HepG2 cells (LC/MS). The format is cell-based, human. Here is the method:
(§3) HUH7 and HepG2 cells were seeded in 6-well plates at a density 250,000 cells per well in complete medium. Next day the medium was changed to 2 ml DMEM with 1% FBS containing a 10-20 μM AA3 inhibitor. After 24 h incubation, the medium was collected, concentrated 10 times on a vacuum concentrator; 10 μl aliquots were used for quantitation by LC/MS and LC/MS/MS-MRM. The cells were trypsinized, washed in PBS and centrifuged at 2,000 g for 10 min. Then cell pellet was lysed on ice in 50 μl of 20 mM Tris-HCl, pH 7.5, containing 1% dodecyl maltoside (DDM) and 1× protease inhibitor cocktail (Sigma/Aldrich). After centrifugation (14,000 g, 10 min) the supernatants were diluted 4 times with methanol and centrifuged (14,000 g, 10 min), then the supernatants were diluted 10 times with water, and 10 μl aliquots were used for quantitation by LC/MS and LC/MS/MS-MRM as described above expect electrospray ionization was used with an Agilent 6460 triple quadrupole mass spectrometer.

The subject of series [5] is HuH7 cells. Put plainly: Levels of FC and NAFC in HuH7 cells (LC/MS). The format is cell-based, human. Here is the method:
as §3

The subject of series [6] is membrane associated Ras in HepG2 cells. Briefly: Membrane associated Ras in HepG2 cells (immunoblot). Conditions: HepG2, 24 h. The format is cell-based, human. Here is the method: Cultured HCC cells and primary hepatocytes were washed with PBS buffer, treated with 0.25% Trypsin-EDTA solution (Corning) and precipitated at 1,000 rpm for 5 min. For protein extraction, HCC cells were lysed on ice by vortexing every 5 min for 30 min in RIPA buffer containing 20 mM Tris-HCl (pH 7.5), 150 mM NaCl, 5 mM EDTA, 1% Triton X-100, 0.5% sodium deoxycholate, 0.1% SDS, and 1× Halt protease inhibitor cocktail (Thermo Scientific, Waltham, Mass.). Prenylated Ras other membrane associated proteins were extracted from HCC cells using a Mem-PER Plus Kit (Thermo Scientific) according to the manufacturer's protocol. […]
HepG2 cells were seeded in 6-well plates at a density 250,000 cells per well. […] 24 h later cells were collected, washed with PBS and the membrane associated Ras proteins were extracted as described above, resolved on SDS-PAGE, and detected with the anti-Ras antibody (EMD Millipore).
To study the effect of AA3 suppression on Ras membrane association, HepG2 and HuH7 cells seeded onto 6-well plates at the same density, were transfected with 50 pmol ACY3 (AA3) Silencer Select Pre-designed siRNA (Invitrogen, Grand Island, N.Y.) using the Lipofectamine RNAiMAX reagent (Invitrogen) following the manufacturer protocol. […] After 48 h incubation, membrane associated proteins were extracted and membrane associated Ras was determined by immunoblotting as described above.
(In general: Immunoblotting shows a protein as a band on a membrane.)

The test system of series [7] is HepG2 cells. Put plainly: MTT cell viability, HepG2. The format is cell-based, human. Conditions: HepG2, within the micromolar range, 24 h. Here is the method: as §2
(§4) To study the effect of AA3 silencing, HepG2 and HUH7 cells seeded in 96-well plates were transfected with 2 pmol AA3 siRNA using the Lipofectamine RNAiMAX reagent as per the manufacturer protocol. Cell viability was measured in the MTT assay 48 h later as described.

The test system of series [8] is HuH7 cells. Put plainly: MTT cell viability, HuH7. Type of series: cell-based, human. Conditions: HuH7, within the micromolar range, 24 h. Here is the method: as §2, §4
Series [9] deals with normal primary hepatocytes. Briefly: MTT cell viability, normal primary hepatocytes. Type of series: cell-based. As to conditions: inhibitor 10: 0-50 μM range; inhibitor 11: in comparison with HCC cell lines. Here is the method:
as §2, §4

Series [10] relates to primary colon epithelial cells. Put plainly: MTT cell viability, normal colon cells. The format is cell-based, human. As to conditions: colon (FIG. 24).
Description: as §1
as §2, with “Cells were incubated during 4 h at 37° C. with 150 μl fresh media containing 0.5 mg/ml MTT.” left out

In the next series the target is T1, mAA3 (Mus musculus, UniProt Q91XE4).
T1 sequence (Q91XE4 1-318): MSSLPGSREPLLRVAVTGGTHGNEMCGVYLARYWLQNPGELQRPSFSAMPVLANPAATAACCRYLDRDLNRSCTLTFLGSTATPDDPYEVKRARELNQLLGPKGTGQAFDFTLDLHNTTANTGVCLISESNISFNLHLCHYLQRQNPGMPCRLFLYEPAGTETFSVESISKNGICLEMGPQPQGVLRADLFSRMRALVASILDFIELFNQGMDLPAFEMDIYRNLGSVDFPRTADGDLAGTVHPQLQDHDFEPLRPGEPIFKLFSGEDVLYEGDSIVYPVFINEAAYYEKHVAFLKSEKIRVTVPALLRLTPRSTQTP
As to conditions: substrate of mAA3; cited from earlier work.

Substrate in series [11]: CC(=O)C/C(C)=C/CC/C(C)=C/CC/C(C)=C/CC/C(C)=C/CN[C@@H](CS)C(=O)O
Put plainly: Deacetylation of NAFC and NAGGC by human AA3. The format is biochemical. As to conditions: other: substrate of human AA3; pH 7.5. Here is the method: (§5) AA3 activity was measured using a previously described fluorescence assay. Human purified AA3 (1 μg), rat AA1 (1 μg) or immunoaffinity purified AA3 from HepG2 and HuH7 cells were assayed for 30 min at […] in […] of 50 mM sodium phosphate buffer, pH 7.5, containing 1 mM NAFC or NAGGC both from Cayman Chemical (Ann Arbor, Mich.). Then 100 μl of the reaction mixture was added to 1 ml of 50 mM sodium phosphate buffer containing 1 mM fluorescamine, and fluorescence was measured (390 nm excitation, 475 nm emission).
(§6) To study the deacetylation of NAFC and NAGGC mediated by AA3, 50 μl aliquots from the reaction assays were injected onto Agilent Eclipse Plus C18 reverse phase HPLC column equilibrated with 0.1% formic acid, and eluted with acetonitrile/0.1% formic acid gradient (0-90%, 20 min). The effluent from the column was passed to an Ionspray ion source connected to a triple quadrupole mass-spectrometer (MS) API III+(PerkinElmer, Boston, Mass.). NAFC and NAGGC (Cayman Chemical) were used for MS calibration.

Substrate in series [12]: CC(=O)CC(C)=CCCC(C)=CCCC(C)=CCN[C@@H](CS)C(=O)O
Put plainly: Deacetylation of NAFC and NAGGC by human AA3. Conditions: other: substrate of human AA3; pH 7.5. The format is biochemical. Here is the method:
as §5, §6

The mark [13] stands for this setting: lines expressing mutant (mut) KRas.
Where [14] appears, read: HepG2, 10-20 μM inhibitor, 24 h, vs untreated.
[15] abbreviates: HuH7, 10-20 μM inhibitor, 24 h, vs untreated.

For the molecule `Cc1ccc(N2C(=O)/C(=C/c3cc([N+](=O)[O-])cc(Br)c3O)SC2=S)c(C)c1` [Inhibitor 3, (5Z)-5-(3-Bromo-2-hydroxy-5-nitrobenzylidene)-3-(2,4-dimethylphenyl)-2-thioxo-1,3-thiazolidin-4-one], in series [1] (setting [13]), the “growth of colon cancer cell lines” value was “suppress growth”. Besides, the “toxicity for pancreatic cancer cells” value in series [2] is on record as “toxic”. In series [3], the “toxicity for pancreatic normal cells” value is “toxic”.
Consider `COc1ccc(CSc2nc3cc(S(N)(=O)=O)ccc3n2C)cc1F` [Inhibitor 11, 2-[(3-Fluoro-4-methoxybenzyl)sulfanyl]-1-methyl-1H-benzimidazole-5-sulfonamide], for which the FC level entry in the series on HepG2 cells [4] (setting [14]) was “not significantly changed”. In addition, the “level of NAFC” value in the series with HepG2 cells [4] (setting [14]) and in the series with HuH7 cells [5] (setting [15]) was “significantly increased” in each case. Further, the results for the “[FC]/[NAFC] ratio” value in the series with HepG2 cells [4] (HepG2 treated cells (untreated ~8.4)) and with HuH7 cells [5] (HuH7 treated cells (untreated ~2.8)) were ~2.8 and ~0.9, respectively. Also, the “FC level decreased by” value in the series with HuH7 cells [5] (setting [15]) is listed as “approximately 50%”. Further, the “level of the membrane associated Ras decreased by, % of control” value in series [6] is ~50%. Further, the “toxicity (cell viability)” value with HepG2 cells [7] and in the series with HuH7 cells [8] was “toxic” each time. Further, in series [9], the “toxicity to normal primary hepatocytes” value is “significantly less toxic”. For the same molecule, the “growth of colon cancer cell lines” value in [1] (setting [13]) is “suppress growth”. The “toxicity for pancreatic cancer cells” value in [2] is “toxic”. Besides, in [3], the “toxicity for pancreatic normal cells” value was “toxic”.
As for `Cc1ccc(-n2sc3ccccc3c2=O)cc1` [Inhibitor 21, 2-(4-methylphenyl)-1,2-benzothiazol-3-one], the “growth of colon cancer cell lines” value in [1] (lines expressing wild type (wt) or mutant (mut) KRas) is “suppress growth”. The “toxicity for normal vs cancer cell lines” value in series [10] and in series [3] (pancreatic (FIG. 25)) was “significantly less toxic” each time. Moreover, the “toxicity for pancreatic cancer cells” value in series [2] is “toxic”. Besides, the “efficiency for pancreatic cell lines” value in series [2] (lines expressing either wild type (wt) or mutant (mut) KRas) is listed as “efficient”. Also, the “toxicity for pancreatic normal cells” value in series [3] is listed as “toxic”.
With `CC(=O)N[C@@H](CSC(Cl)(Cl)C(F)F)C(=O)O` [N-Acetyl-S-(2,2-difluoro-1,1-dichloroethyl)-L-cysteine], on mAA3, the “Vmax, times lower than N-acetyl-S-(2,2-dichloro-1,1-difluoroethyl)-L-cysteine” value is on record as ~30 times and the “affinity, times higher than N-acetyl-S-(2,2-dichloro-1,1-difluoroethyl)-L-cysteine” value was ~18 times.

B1: human AA3 (Homo sapiens) (protein)
chain: MCSLPVPREPLRRVAVTGGTHGNEMSGVYLARHWLHAPAELQRASFSAVPVLANPAATSGCRRYVDHDLNRTFTSSFLNSRPTPDDPYEVTRARELNQLLGPKASGQAFDFVLDLHNTTANMGTCLIAKSSHEVFAMHLCRHLQLQYPELSCQVFLYQRSGEESYNLDSVAKNGLGLELGPQPQGVLRADIFSRMRTLVATVLDFIELFNQGTAFPAFEMEAYRPVGVVDFPRTEAGHLAGTVHPQLQDRDFQPLQPGAPIFQMFSGEDLLYEGESTVYPVFINEAAYYEKGVAFVQTEKFTFTVPAMPALTPAPSPAS
notes: 6His (N); made in house; host or cells: E. coli
As to B1, in [11], the Km (usually the substrate concentration at which the rate is half of its maximum) amounted to 140 µM and the kcat (in general, the maximal rate divided by the concentration of active sites) was found to be 7.2 s⁻¹. In addition, in series [12], the Km is 25 µM and the kcat was found to be 2 s⁻¹.
